# Measured values taken from patent US8759073B2, “Method for effectively controlling harmful organisms in large-scale culture of microalgae” (ENN Science & Technology Development Co., Ltd., priority 2009, dated 2014).
# Assays:
# Spirulina maxima = test: Growth of cultured algae after treatment, 500 L raceway pond; assay type: cell-based; details: Example 15; 1M ammonia pH 10.0 1 h, saturated CO2 23 h, then air
# Description: Modified SM (see Table 2) was used. […] Then air was sufficiently aerated. Twenty-four hours later, the algae could resume to grow.
# Modified SM (see Table 2) was used. […] One hour later, CO2 was aerated to saturation for 23 hour continuously (about pH 5.8). […] Then air was sufficiently aerated. Twenty-four hours later, the algae could resume to grow.
# Chlorococcum sp. = test: Growth of cultured algae after treatment, 60 L glass plate reactor
# Description: pH of the normally cultured microalgae is adjusted into various ranges. The growth rate of the microalgae is measured and their appearance is observed under a microscope.
# Chlorococcum sp. (obtained from Qingdao Marine Institute) was cultured (pH 8.0-9.0 for the normal culture) in a 60 L glass plate reactor (manufactured by Longfang Jiangchuan plexiglass Co. Ltd., OP=10 cm) under a sunlight film (with a temperature of about 25 °C, a humidity of 60%-80%, and an illumination of 8000-20000 lux). Modified BG11 medium (see Table 3) was used. […] CO2 was aerated continuously. […] Then air was sufficiently aerated, and pH was raised to 7.0-8.0 in 4 hours.
# (§1) Chlorococcum sp. (obtained from Qingdao Marine Institute) was cultured in a 60 L glass plate reactor (manufactured by Longfang Jiangchuan plexiglass Co. Ltd., OP=10 cm) under a sunlight film (with a temperature of about 25 °C, a humidity of 60%-80%, and an illumination of 8000-20000 lux) (pH 8.0-9.0 for the normal culture). Modified BG11 medium (see Table 3) was used. […] Then CO2 was aerated and pH was adjusted to 7.0-8.0.
# Chlorococcum sp. (obtained from Qingdao Marine Institute) was cultured in a 60 L glass plate reactor (manufactured by Longfang Jiangchuan plexiglass Co. Ltd., OP=10 cm) under a sunlight film (with a temperature of about 25 °C, a humidity of 60%-80%, and an illumination of 8000-20000 lux) (pH 8.0-9.0 for the normal culture). Modified BG11 medium (see Table 3) was used. […] One hour later, CO2 was aerated to saturation (about pH 5.6) for 24 hour continuously. […] Then air was sufficiently aerated.
# as §1, with “air” for “CO2”, “sufficiently aerated.” for “aerated and pH was adjusted to 7.0-8.0.”
# as §1
# Chlorococcum sp. (obtained from Qingdao Marine Institute) was cultured in a 60 L glass plate reactor (manufactured by Longfang Jiangchuan plexiglass Co. Ltd., OP=10 cm) under a sunlight film (with a temperature of about 25 °C, a humidity of 60%-80%, and an illumination of 8000-20000 lux) (pH 8.0-9.0 for the normal culture). Modified BG11 medium (see Table 3) was used.
compound,measurement,setting,value
"O=C=O [CO2, carbon dioxide]",time until algae resumed to grow after air aeration,Spirulina maxima,Twenty-four
same,growth of the algae,Chlorococcum sp.,rarely affected
same,time until algae started to grow after recovery of pH7.0 or above,Chlorococcum sp.; pH 7,8 hours
same,time until algae resumed to grow after air aeration,Chlorococcum sp.; pH 9,Eighteen
